Test results from US20160304547A1, “MACROLIDE COMPOUND” (PULIKE BIOLOGICAL ENGINEERING, INC, priority 2013, published 2016).
In brackets after ≈: the same amount, converted by molar mass.

Tests used:
[1] = test system: Streptococcus pneumoniae CMCC 31203; experiment: In vivo antibacterial test, survival of infected BALB/c mice; settings: BALB/c mice infected i.p. with Streptococcus pneumoniae; for responders at 5 mg/kg: CMCC31203, sc, 168 h, 5 mg per kg s.c. via neck for 3 consecutive days, deaths recorded until the seventh day, read-out: Animal survival rate
[2] = orally intoxicated mice; cited from earlier work
[3] = Acute toxicity test of compound Syzx-24, single gastric perfusion; settings: Balb/c mice, 2000 mg/kg once by gastric perfusion, 6 h after administration
[4] = test system: Staphylococcus aureus CVCC26003; experiment: MIC by mini broth dilution technique (in vitro susceptibility); assay type: cell-based; settings: Staphylococcus aureus CVCC26003; broth dilution; read-out: MIC values Staphylococcus aureus CVCC26003
Procedure: (§1) in vitro tests of susceptibility of the compounds according to the present disclosure against bacterial strains commonly used in laboratories. In accordance with the Performance Standards for Antimicrobial Disk Susceptibility Tests: Approved Standard published by the US National Committee for Clinical Laboratory Standards, the antibactetial activities of compounds prepared according to examples 5 to 187 were tested. The MICs (minimum inhibitory concentration) of the medicaments prepared according to the examples on the following bacterial strains were measured through mini broth dilution technique. Staphylococcus aureus CVCC26003, Streptococcus equines CVCC556. Actinobacillus pleuropneumoniae CVCC262, Haemophilus parasuis, and Pasteurella multocida CVCC399, which were purchased from the Control Institute of Veterinary Bioproducts and Pharmaceuticals, China. Liquid culture medium: CAMHB. […] Solid culture medium: NINA prepared according to the specification of the final product. The strains were taken out of a regrigerator at −20° C. to be revived, and were spreaded by streaking on the solid culture medium with an inoculating loop. The inoculated culture medium was cultured at 35° C. in a constant temperature incubator for 20 h. Monoclonal antibodies were selected from a well-grown culture plate and streaked on the solid culture medium. The inoculated culture medium was cultured at 35° C. in the constant temperature incubator for 20 h. […] A 96-well plate was used, and 100 μl of DMSO was added into each of wells 2 to 11, and 200 μl of ready-prepared medicament solution was added into the 1st well, 100 μl of the medicament solution was extracted from the 1st well and added into the 2nd well. Double dilution was performed until the 11th well, thereby forming 11 gradients. In this case, compound of parent plate was prepared. 3 μl of double diluted medicament solution was extracted with a 12-channel pipettor and added into wells 1-11 of a new disposable 96-well culture plate. The 12th well thereof is a controll well. For each medicament, there are two adjacent rows which are parallel. The transferred compound plate was reserved for later use. […] The dilution ratio was recorded, and the bacterial liquid for the tests was diluted according to the recorded dilution ratio. Subsequently, the bacterial suspension and the liquid culture medium were diluted in the proportion of 1:200. The diluted solution was reserved for later use.

[5] = test system: Actinobacillus pleuropneumoniae CVCC262; experiment: as above; assay type: cell-based; settings: Actinobacillus pleuropneumoniae CVCC262; broth dilution; read-out: MIC values Actinobacillus pleuropneumoniae CVCC262
Procedure: as §1, with “medium:” for “medium: CAMHB.”, “NINA prepared according to the specification of the final product.” left out

Haemophilus parasuis = experiment: as above; assay type: cell-based; settings: Glaesserella parasuis; Haemophilus parasuis; broth dilution; read-out: MIC values Haemophilus parasuis
Procedure: as §1, with “medium:” for “medium: CAMHB.”, “NINA prepared according to the specification of the final product.” left out

[6] = test system: Pasteurella multocida CVCC399; experiment: as above; assay type: cell-based; settings: Pasteurella multocida CVCC399; broth dilution; read-out: MIC values Pasteurella multocida CVCC399
Procedure: as §1, with “medium:” for “medium: CAMHB.”, “NINA prepared according to the specification of the final product.” left out

[7] = test system: Streptococcus equines CVCC556; experiment: as above; assay type: cell-based; settings: Streptococcus equines CVCC556; broth dilution; read-out: MIC values Streptococcus equines CVCC556
Procedure: as §1, with “medium:” for “medium: CAMHB.”, “NINA prepared according to the specification of the final product.” left out

Row | SMILES | Animal survival rate ([1]; Tulathromycin control group, 10 mg per kg of body weight after infection, until the seventh day) | minimum lethal dose [2] | Death rate [3] [%] | Number of dead animals/total number of animals [3] | MIC [4] [µg/mL] | MIC [5] [µg/mL] | MIC (Haemophilus parasuis) [µg/mL] | MIC [6] [µg/mL] | MIC [7] [µg/mL] | responders at 5 mg/kg [1] [%]
1 | CCCNC[C@]1(O)[C@H](C)O[C@@H](O[C@H]2[C@H](C)[C@@H](O[C@@H]3O[C@H](C)C[C@H](N(C)C)[C@H]3O)[C@](C)(O)C[C@@H](C)CN[C@H](C)[C@@H](O)[C@](C)(O)[C@@H](CC)OC(=O)[C@@H]2C)C[C@@]1(C)OC [Tulathromycin, reference compound] | 70% (7/10) | higher than 2000 mg/kg.d-1 | 75 |  |  |  |  |  |  | 
2 | CC[C@H]1OC(=O)[C@H](C)[C@@H](O[C@H]2C[C@@](C)(OC)[C@](O)(CN(C)C)[C@H](C)O2)[C@H](C)[C@@H](O[C@@H]2O[C@H](C)C[C@H](N(C)C)[C@H]2O)[C@](C)(O)C[C@@H](C)NC[C@H](C)[C@@H](O)[C@]1(C)O [syzx-24] |  |  | 0 | 0/4 |  |  |  |  |  | 
3 | CC[C@@H]1OC(=O)[C@H](C)[C@H](OC2C[C@@](C)(OC)[C@](O)(CNCCCOC)[C@H](C)O2)[C@@H](C)[C@@H](O[C@@H]2O[C@H](C)C[C@H](N(C)C)[C@H]2O)[C@](C)(O)C[C@@H](C)NC[C@@H](C)[C@H](O)[C@]1(C)O (some centres unmarked) [syzx-66] |  |  |  |  | 1 (≈ 1.2 µM) | 8 (≈ 9.57 µM) | ≤ 0.25 | ≤ 0.25 | 0.5 (≈ 0.598 µM) | 80
4 | CC[C@@H]1OC(=O)[C@H](C)[C@H](OC2C[C@@](C)(OC)[C@](O)(CNCC3CCCCC3)[C@H](C)O2)[C@@H](C)[C@@H](O[C@@H]2O[C@H](C)C[C@H](N(C)C)[C@H]2O)[C@](C)(O)C[C@@H](C)NC[C@@H](C)[C@H](O)[C@]1(C)O (some centres unmarked) [syzx-67] |  |  |  |  | ≤ 0.25 | 0.5 (≈ 0.581 µM) | ≤ 0.25 | ≤ 0.25 | ≤ 0.25 | 70
5 | CCCN1C[C@@H](C)[C@@H](O)[C@](C)(O)[C@H](CC)OC(=O)[C@H](C)[C@H](OC2C[C@@](C)(OC)[C@](O)(CN(C)CC)[C@H](C)O2)[C@H](C)[C@@H](O[C@@H]2O[C@H](C)C[C@H](N(C)C)[C@H]2O)[C@](C)(O)C[C@H]1C (some centres unmarked) [syzx-213] |  |  |  |  | 0.25 (≈ 0.295 µM) | 0.25 (≈ 0.295 µM) | 0.25 (≈ 0.295 µM) | 0.25 (≈ 0.295 µM) | 0.25 (≈ 0.295 µM) | 90
